From patent US11365227B2, “Peptide and pharmaceutical compositions of same for use as an antimicrobial and in cancer treatment” (UNIVERSITAT DE VALÈNCIA, priority 2017, dated 2022)
Where no end group is shown, it is not given here.

Legend:
[1] = test system: MDA-MB-231 triple-negative breast cancer cells; assay: MTS cell viability, combined treatments of PaSK with chemotherapeutic agents
S. aureus [2] = assay: Antimicrobial activity by flow cytometry (SYBR Green / propidium iodide); format: cell-based, Staphylococcus aureus subsp. aureus CECT 4013; conditions: 25 μg/mL, 8 h at 37° C., 2 replicates
Procedure: The strain used was CECT 4013 of S. aureus subsp. aureus, publicly accessible deposited in the Spanish Type Culture Collection (CECT).
Starting from cells of S. aureus cultured overnight in a liquid medium LB (peptone 1%, yeast extract 0.5% and NaCl 1%) at 37° C. with stirring, aliquots were obtained in a new liquid medium and allowed to grow until reaching an optical density at 600 nm (OD600) of 0.5, optimum for detection in the flow cytometer. Aliquots were prepared with a concentration of 5×10^6 cfu/100 μL of S. aureus to which were added 10, 15, 20 and 25 μg/mL of PaSK, 25 μg/mL of TcDef3-pep and H2O (negative control), solvent used to dilute the peptides. The mixtures were incubated at 37° C. for 8 h and marked with the fluorochromes SYBR Green (Invitrogen) (25 μL of a SYBR Green 25× solution in H2O) that stains all the cells and propidium iodide (Sigma) (10 μL of propidium iodide 1 mg/mL) that stains dead cells. Finally, the cell death caused by the peptides was analysed by flow cytometry with the equipment BD Facs Verse (Becton Dickinson), from the cell culture and flow cytometry section of the Central Services for Research Support of the University of Valencia. The experiments were performed in duplicate.
The flow cytometer forces cells to pass one by one through a needle, creating a thin line of liquid and detecting how the laser beam (argon emission laser at 488 nm, in the equipment used) interacts with the cells, depending on how the incident light is deviated and the fluorescence emitted by the excited fluorochromes. The results are presented as graphs obtained with the analysis program BD Facs suite v1.0.5.3841 (Becton Dickinson). […] Then, a second graph is obtained with the parameters SSC and FITC (fluorescence parameter indicating the cells containing SYBR Green), to differentiate the cells from the other particles that may be present in the sample. Lastly, a third graph is obtained with the fluorescence parameters FITC and PerCPCy5.5 (indicating the cells stained with propidium iodide) to differentiate the cells that have been stained only by SYBR Green from those stained with propidium iodide, which will be those that have died.
The antimicrobial activity of the peptide PaSK was determined by flow cytometry. […] Therefore, the use of these two fluorochromes provides a method for determining viable cells, quantifying the loss of cell viability from the increase in propidium iodide inside the dead cells.
After incubating the cells of strain CECT 4013 of S. aureus with 25 μg/mL of the peptides TcDef3-pep and PaSK, the percentage of dead cells was determined. […] FIGS. 1A-1D show the graphs corresponding to the fluorescence obtained in the windows of the flow cytometer.

S. aureus [3] = assay: Transmission electron microscopy of S. aureus cells treated with peptides; format: cell-based, Staphylococcus aureus subsp. aureus CECT 4013; conditions: 25 μg/mL, 1 h
Procedure: The samples were prepared in the same way as for scanning electron microscopy, except for the series of graded dehydration with ethanol, in which only the 90° grade was reached. Then the samples were included in resin in 4 steps: ethanol 96°—resin LR-White 2:1 (20 h), ethanol 100°—resin 2:1 (20 h), ethanol 100°—resin 1:2 (20 h) and 100% resin (24 h at 60° C.). After the samples were included in the resin the block was prepared for ultrathin cuts of 60 nm in the equipment Leica UC6 Ultracut Microtome.
Transmission electron microscopy provides high-resolution images which were used to view the ultrastructural damage caused by the peptides inside the bacteria. The cells of S. aureus CECT 4013 were treated with the peptides hBD-3, TcDef3-pep and PaSK at a concentration of 25 μg/mL, for 1 h, and analysed using transmission electron microscopy (FIG. 6). In cells without treatment, an intact cytoplasm membrane (3) and peptidoglycane wall (2) were observed, typical of a Gram+ bacteria as S. aureus, as well as a division septum (1) without malformations, while in treated cells different types of alterations were observed. […] Small size circular structures (9) are observed. These structures show a different electrodensity from cells and lack a cytoplasm membrane and peptidoglycane wall. The biofilm formed by the cells treated with peptides was also observed in the images obtained by transmission electron microscopy (FIG. 7) and it was not observed in the cells treated with human defensin hBD-3 (FIG. 6).

S. aureus [4] = conditions: 10 μg/mL; Contreras et al., 2015; cited from earlier work
S. aureus [5] = assay: Scanning electron microscopy of S. aureus cells treated with peptides; format: cell-based, Staphylococcus aureus subsp. aureus CECT 4013; conditions: 25 μg/mL, 1 h
Procedure: The cells were prepared in the same way as for the flow cytometry technique and the same aliquots and treatments were performed. The samples were incubated at 37° C. for 1 h. The bacteria were fixed with Karnosky (2.5% paraformaldehyde and 0.5 glutaraldehyde) for 2 h at 4° C. After washing (centrifuging and eliminating the supernatant) they were fixed with 2% osmium tetraoxide for another 2 h, washed again and filtered with a 0.2 μm filter. The cells were then dehydrated in graded ethanol series (30°, 50°, 70°, 90°, 100°) for 10 min in each gradation. To carry out the critical point drying, the ethanol was replaced with liquid CO2, the temperature was increased to accelerate evaporation and the pressure was lowered slowly to conserve the exact shape of the bacteria. Finally, shading with gold palladium was performed for 2 min observing the results in the equipment FEG-SEM HITACHI S4800 at 10 Kv.
Scanning electron microscopy provides high-resolution images used to view the damage caused by the peptides to the bacterial membrane. The cells of S. aureus CECT 4013 were treated with the peptides hBD-3, TcDef3-pep and PaSK at a concentration of 25 μg/mL, for 1 h, and analysed using scanning electron microscopy (FIG. 4). In cells without treatment the circular and uniform form typical of S. aureus was observed, with the intact membrane, while in treated cells various types of morphological alterations can be seen. […] With this treatment small circular structures are observed, smaller than the cells of S. aureus.

[6] = chemotherapeutic agent alone, 72 h, 3 replicates

Row | Compound | EC50 [1, 6] [µM] | EC50 ([1]; Homo sapiens, MDA-MB-231, 72 h) [µM] | percentage of dead cells (cytotoxicity) (S. aureus [2]) | ultrastructural damage, transmission electron microscopy (S. aureus [3]) | biofilm formation, scanning electron microscopy (S. aureus [5]) | morphological alterations, scanning electron microscopy (S. aureus [5]) | other results
1 | O=c1[nH]cc(F)c(=O)[nH]1 [5-fluorouracyl] | 25.3 ± 4.33 | – | – | – | – | – | –
2 | N.N.[Cl][Pt][Cl] [cisplatin] | 168 ± 53.9 | – | – | – | – | – | –
3 | COc1cccc2c1C(=O)c1c(O)c3c(c(O)c1C2=O)C[C@@](O)(C(=O)CO)C[C@@H]3O[C@H]1C[C@H](N)[C@H](O)[C@H](C)O1 [doxorubicin] | – | 0.407 ± 0.033 | – | – | – | – | –
4 | CC(=O)O[C@H]1C(=O)[C@@]2(C)[C@H]([C@H](OC(=O)c3ccccc3)[C@]3(O)C[C@H](OC(=O)[C@H](O)[C@@H](NC(=O)c4ccccc4)c4ccccc4)C(C)=C1C3(C)C)[C@]1(OC(C)=O)CO[C@@H]1C[C@@H]2O [paclitaxel] | – | 0.008 ± 0.005 | – | – | – | – | –
5 | TcDef3-pep: 29 amino acid peptide fragment of Tribolium castaneum defensin 3, SEQ ID NO: 2, disclosed in Contreras et al., 2015 (VNHAACAAHCLLKRKRGGYCNKRRICVCR) | – | – | ~55% | malformations and bulges in the bacterial membrane | biofilm produced | bulges are observed in the bacterial membrane | mortality percentage (S. aureus [4]): 9.2%
6 | hBD-3: human defensin hBD-3 (PeptaNova), positive control (GIINTLQKYYCRVRGGRCAVLSCLPKEEQIGKCSTRGRKCCRRKK; ends and bridges not checked; cysteine pairing not given here; UniProt P81534 23-67, looked up) | – | – | around 70% | malformations (4) and lysis of the membrane | did not form a biofilm | structural damage and lysis of the membrane | –
